Where two headings read alike, the source gives them in different places. Marks after values point to notes of the source that are not given here.
How the values were obtained:
[1] = Pharmacokinetics of rhIGFBP-3 after single SC injection in rats; assay type: in vivo
Experimental: The purpose of this study was to characterize the pharmacokinetic profile of rhIGFBP-3 following a single SC administration to rats. Adult male rats (N=5/group) were administered doses of 3-30 mg/kg rhIGFBP-3 by bolus SC injection and blood specimens were collected for drug concentration analysis.

[2] = tested on: 3LL Lewis lung tumor; assay: Treatment of 3LL murine Lewis lung tumors in C57BL6 mice; assay type: in vivo; details: for Mean Tumor Volume: day 23, mean ± SEM
Experimental: Female C57BL6 mice (8 animals per group) received bilateral SC implants of 3LL Lewis lung tumor fragments on day 0 and were treated subcutaneously with vehicle, rhIGFBP-3 (3 or 10 mg/kg twice daily×21), carboplatin (25 or 50 mg/kg; IP; single dose) or a combination of agents beginning on day 2.

[3] = tested on: MCF-7 human breast xenografts; assay: Early treatment of MCF-7 human breast xenografts in CD1 nu/nu mice; assay type: in vivo
Experimental: Female CD1 nu/nu mice (12 animals per group) received SC implants of 5×10^6 MCF-7 cells. On the same day, mice received either vehicle or rhIGFBP-3 IP at a dose of 20 mg/kg. Mice were then treated with either vehicle or rhIGFBP-3 (20 mg/kg twice daily) for 10 weeks. Tumor volume was monitored beginning on week 2 and measured 3 times thereafter. […] In addition, the 3 tumors that did arise in the rhIGFBP-3 group were smaller than those in the control group.

[4] = tested on: MCF-7 breast tumor xenografts; assay: Treatment of established MCF-7 human breast tumors with rhIGFBP-3 and paclitaxel in balb/c nu/nu mice; assay type: in vivo
Experimental: Female balb/c nu/nu mice (8 animals per group) received bilateral SC implants of MCF-7 breast tumor fragments which were allowed to grow to volumes of 100-150 mm^3 prior to initiation of treatment. Upon establishment of the tumors, mice were treated with vehicle, rhIGFBP-3 (3, 10 or 30 mg/kg twice daily; SC×21), paclitaxel (10 or 20 mg/kg; IP; daily for 5 days) or a combination of agents. Tumors were measured twice weekly for 3 weeks and net tumor growth was calculated at each time point.

[5] = tested on: LoVo colorectal carcinoma xenografts; assay: Treatment of LoVo human colorectal carcinoma xenografts with rhIGFBP-3 and irinotecan in balb/c nu/nu mice; assay type: in vivo; details: for effect after discontinuation of treatment: treatment discontinued day 21, monitored to day 40
Experimental: Female balb/c nu/nu mice (8 animals per group) received bilateral SC implants of LoVo colorectal carcinoma fragments which were allowed to grow to volumes of 100-150 mm3 prior to initiation of treatment. Upon establishment of the tumors, mice were treated with vehicle, rhIGFBP-3 (3, 10 or 30 mg/kg twice daily; SC x 21), irinotecan (10 or 20 mg/kg; IP; 4 doses at 4 day intervals) or a combination of agents. All treatment was discontinued on day 21 and mice were monitored for tumor response out to day 40. Net tumor growth was calculated at each time point.

[6] = tested on: MCF-7 human breast cancer cells; assay: MCF-7 cell proliferation (MTT) with increasing rhIGFBP-3; assay type: cell-based; details: 5% FBS, 4 days, increasing concentrations
Experimental: FIG. 5(A) depicts the MCF-7 breast cancer cell proliferation as assayed by MTT in increasing concentrations of rhIGFBP-3.
The purpose of this study was to evaluate the effects of rhIGFBP-3 alone and in combination with radiation therapy in MCF-7 human breast cancer cells. MCF-7 cells were plated and cultured in 5% FBS for 4 days with increasing concentrations of rhIGFBP-3 in the media.

[7] = tested on: BT474; assay: Growth inhibition (MTT assay), BT474; assay type: cell-based, human
[8] = tested on: BT474/HerR; assay: Growth inhibition (MTT assay), BT474/HerR; assay type: cell-based, human
[9] = tested on: SKBR3; assay: Growth inhibition (MTT assay), SKBR3; assay type: cell-based, human
[10] = tested on: SKBR3/IGF-IR; assay: Growth inhibition (MTT assay), SKBR3/IGF-IR; assay type: cell-based, human
[11] = tested on: MCF-7/HER2-18; assay: Growth inhibition (MTT assay), MCF-7/HER2-18; assay type: cell-based, human
[12] = rat, in vivo, iv
Experimental: (§1) The purpose of this study was to characterize the pharmacokinetic profile of rhIGFBP-3 following a single IV administration to rats. Adult male Sprague-Dawley rats (N=3/group) were administered doses of 0.8-160 mg/kg rhIGFBP-3 and blood specimens were collected for drug measurement.

[13] = tested on: MCF-7 human breast cancer cells; details: for cell survival: 1 μg/mL, day 12
Experimental: In a second experiment, MCF-7 cells were exposed to increasing doses of irradiation and rhIGFBP-3 24 hours after plating. Cell survival was determined on day 12.

[14] = Pharmacokinetics of rhIGFBP-3 after single IV administration to rats; details: for AUC / Cmax: mean ± SD
Experimental: as §1

[15] = 20 mg/kg twice daily, after 10 weeks, mean ± SD
[16] = IV, 8.0 mg/kg vs 0.8 mg/kg (ten fold increase in dose)

rhIGFBP-3: recombinant human insulin-like growth factor binding protein-3; preferred form from E. coli, native human sequence, lacks glycosylation
absorption following SC administration ([1]; SC): readily absorbed into the circulation | AUC ([1]; SC, 3 mg/kg): 5347 ± 909 ng·h/mL | CL/W ([1]; SC, 3 mg/kg): 578 ± 122 mL/h/kg | Cmax ([1]; SC, 3 mg/kg): 751 ± 120 ng/mL | AUC ([1]; SC, 10 mg/kg): 12999 ± 933 ng·h/mL | CL/W ([1]; SC, 10 mg/kg): 773 ± 60 mL/h/kg | Cmax ([1]; SC, 10 mg/kg): 2255 ± 217 ng/mL | increase in AUC compared to the 3 mg/kg group ([1]; SC, 10 mg/kg): approximately 2.5 fold | AUC ([1]; SC, 30 mg/kg): 54476 ± 7517 ng·h/mL | CL/W ([1]; SC, 30 mg/kg): 560 ± 85 mL/h/kg | Cmax ([1]; SC, 30 mg/kg): 6924 ± 1021 ng/mL | increase in AUC compared to the 3 mg/kg group ([1]; SC, 30 mg/kg): ~10 fold | signs of toxicity ([1]; single SC, 3-30 mg/kg): No signs of toxicity | Mean Tumor Volume ([2]; 3 mg/kg twice daily SC x21): 289.00 ± 42.97 mm^3 | reduction in tumor volume compared with carboplatin ([2]; 10 mg/kg twice daily): equal to that observed with the standard chemotherapeutic agent carboplatin | Mean Tumor Volume ([2]; 10 mg/kg twice daily SC x21): 149.73 ± 25.34* mm^3 | 3LL Lewis lung tumor growth, single agent ([2]; 3 or 10 mg/kg twice daily SC): dose-dependently inhibited | effect in combination with carboplatin ([2]; rhIGFBP-3 3 or 10 mg/kg twice daily + carboplatin 25 or 50 mg/kg IP): did not potentiate the effects of carboplatin | Number of Mice with Tumors ([3]; 20 mg/kg twice daily IP, after 10 weeks): 3/12 | MCF-7 tumor establishment compared to control ([3]; 20 mg/kg twice daily for 10 weeks): prevented MCF-7 tumor establishment | Mean Tumor Volume [3, 15]: 37.7 ± 42.0 mm^3 | Mean Tumor Weight [3, 15]: 0.046 ± 0.047 g | tumor volume compared to control, all mice in each group ([3]; end of treatment, p≦0.05): significantly lower | net tumor growth, single agent ([4]; 3, 10 or 30 mg/kg twice daily SC x21): did not inhibit net tumor growth | effect in combination with paclitaxel ([4]; maximum effect at 10 mg/kg rhIGFBP-3 and 20 mg/kg paclitaxel): enhanced the effect of paclitaxel | net tumor growth, combination with irinotecan ([5]; 30 mg/kg rhIGFBP-3 + 10 mg/kg irinotecan): optimal results | inhibition of net tumor growth, single agent, vs 10 mg/kg irinotecan ([5]; 30 mg/kg twice daily SC x21): equally effective | effect after discontinuation of treatment [5]: persisting effect | maximum growth suppression compared to control [6]: 50% | Growth Inhibition (MTT Assay) ([7]; 0.1-100 μg/ml): 10-20% | effect when combined with Herceptin, in words ([7]; combined with Herceptin): did not significantly enhance Herceptin sensitivity | Growth Inhibition (MTT Assay) ([8]; 0.1-100 μg/ml): 10-26% | effect when combined with Herceptin, in words ([8]; combined with Herceptin): strong dose-dependent increase in Herceptin sensitivity | growth inhibition in words, single agent ([8]; single agent): less pronounced effect | Growth Inhibition (MTT Assay) ([9]; 0.1-100 μg/ml): 20-40% | effect when combined with Herceptin, in words ([9]; combined with Herceptin): modest effect | Growth Inhibition (MTT Assay) ([10]; 0.1-100 μg/ml): 12-40% | effect when combined with Herceptin, in words ([10]; combined with Herceptin): strong dose-dependent increase in Herceptin sensitivity | growth inhibition in words, single agent ([10]; single agent): marked dose-dependent growth inhibition | Growth Inhibition (MTT Assay) ([11]; 0.1-100 μg/ml): 15-55% | effect when combined with Herceptin, in words ([11]; combined with Herceptin, compared to rhIGFBP-3 alone): marginal dose-dependent increase in growth inhibition | growth inhibition in words, single agent ([11]; single agent): marked dose-dependent growth inhibition | CL/W ([12]; 0.8 mg/kg): 424 ± 187 mL/h/kg | CL/W ([12]; 8 mg/kg): 803 ± 97 mL/h/kg | CL/W ([12]; 80 mg/kg): 380 ± 64 mL/h/kg | CL/W ([12]; 160 mg/kg): 579 ± 145 mL/h/kg | cell survival ([13]; 0 Gy): ~65% | cell survival ([13]; 2 Gy): 37% | cell survival ([13]; 4 Gy): 21% | cell survival ([13]; 6 Gy): 5% | effect on radiation-induced cell death ([13]; all radiation doses): accentuated this effect on cell death at all doses | drug concentration in the serum ([14]; IV 0.8 mg/kg, four hours after administration, below quantitative limitation of the assay): < 300 ng/mL | AUC ([14]; IV, 0.8 mg/kg): 2.172 ± 0.999 µg·h/mL | Cmax ([14]; IV, 0.8 mg/kg): 3.067 ± 0.551 µg/mL | fold increase in AUC [14, 16]: 4.6 fold | fold increase in Cmax [14, 16]: 1.6 fold | AUC ([14]; IV, 8.0 mg/kg): 10.057 ± 1.248 µg·h/mL | Cmax ([14]; IV, 8.0 mg/kg): 4.967 ± 1.159 µg/mL | AUC ([14]; IV, 80 mg/kg): 215.06 ± 39.102 µg·h/mL | AUC ([14]; IV, 160 mg/kg): 287.575 ± 64.18 µg·h/mL | Cmax ([14]; IV, 160 mg/kg): 476.667 ± 122.202 µg/mL | drug serum concentrations 8 hours after dosing ([14]; IV, all dose groups other than 0.8 mg/kg): detectable | Cmax ([14]; IV): 360.333 ± 62.772 µg/mL | adverse clinical signs ([14]; single IV, any dose tested (0.8-160 mg/kg)): no adverse clinical signs

N.N.O=C([O-])C1(C(=O)[O-])CCC1.[Pt+2] [Carboplatin, carboplatin, reference compound]
Mean Tumor Volume ([2]; 25 mg/kg IP single dose): 144.92 ± 31.36* mm^3 | Mean Tumor Volume ([2]; 50 mg/kg IP single dose): 187.36 ± 37.42* mm^3

CCc1c2c(nc3ccc(OC(=O)N4CCC(N5CCCCC5)CC4)cc13)-c1cc3c(c(=O)n1C2)COC(=O)[C@]3(O)CC [irinotecan, reference compound]
effect after discontinuation of treatment [5]: persisting effect

From patent publication US20040127411A1, “Methods for treating lung cancer using insulin-like growth factor binding protein-3” (Insmed, Inc., priority 2002, published 2004)
